Assay results: US20040067998A1, “Antifungal and/or antiparasitic pharmaceutical composition and novel indole derivatives as active principle of such a composition” (priority 2003, published 2004)
≈ marks a conversion by molar mass, not a printed value. Where “and” joins values, the source holds several entries; their conditions need not be identical. Identical values can stand only once. Entries after “also recorded” stand apart in the source; their conditions may differ. Like-named read-outs stand apart in the source and are kept apart here. One block for each molecule: values may come before it.

Columns and labels:
[1] = system: promastigote stage of Leishmania mexicana; experiment: Antiparasitic activity on the promastigote form of Leishmania (MTT); format: cell-based
[2] = system: Aspergillus fumigatus (strain n°AF 980003); experiment: Antifungal activity on a clinical strain of Aspergillus fumigatus (Alamar Blue microplate test); format: cell-based; conditions: Aspergillus fumigatus, strain AF980003, read-out: CMI or CI80 Aspergillus fumigatus (AF980003)
[3] = system: Candida albicans (strain n° CA980001); experiment: Antifungal activity on a clinical strain of Candida albicans (MTT colorimetric microplate test); format: cell-based; conditions: strain CA980001; for MIC: read-out: CMI or CI80 Candida albicans (CA980001)
Leishmania major = experiment: Anti-leishmanian activity in vivo on a model of cutaneo-mucosal and visceral leishmaniasis; set-up: species or system male BALB/c mice
Method: (1999), Croft et al. (1993) and Hill et al. (1983). The animals used (Centre d'élevage R. Janvier, Le Genest-St-France) were male BALB/c mice, aged 7 weeks at the time of inoculation of the parasites. This operation was performed in accordance with the legislation relating to animal experimentation. […] Days after the inoculation, the treatment was administered intraperitoneally for 10 days. Three weeks after the treatment, its effectiveness was determined by determining the parasite level in the liver, spleen, popliteal ganglion and the cutaneous lesion.

[4] = system: intracellular amastigote form of Leishmania mexicana; experiment: Anti-leishmanian activity on the amastigote form in peritoneal macrophages of BALB/c mice; format: cell-based; conditions: for IC50: Leishmania mexicana, Peritoneal macrophage, read-out: CI50 Intracellular amastigotes
[5] = system: Candida albicans (CA98001); experiment: Antifungal activity in vivo on a model of disseminated candidiasis; set-up: species or system female Swiss mice; conditions: for survival at D10: Test N°4
[6] = system: Candida albicans (4 strains); experiment: Antifungal activity in vitro on clinical strains of Candida: albicans (4 strains); format: cell-based
[7] = system: Candida parapsilosis (2 strains); experiment: Antifungal activity in vitro on clinical strains of Candida: parapsilosis (2 strains); format: cell-based
[8] = system: Candida krusei (4 strains); experiment: Antifungal activity in vitro on clinical strains of Candida: krusei (4 strains); format: cell-based
[9] = system: Candida lusitaniae (1 strain); experiment: Antifungal activity in vitro on clinical strains of Candida: lusitaniae (1 strain); format: cell-based; conditions: for CI80 on clinical strains of Candida: strain CL980001 (Candida lusitaniae)
synthesis of ergosterol = experiment: Mechanism of action: quantification of ergosterol (HPLC and UV spectrophotometry); format: cell-based
From the text: The principal mechanism of action of the triazole derivatives is the inhibition of the synthesis of ergosterol leading to instability of the cell membrane. […] These two techniques require a prior saponification of the sample followed by an extraction of the sterols present. The results obtained are expressed in μg of ergosterol per g of sample. The activity of the derivatives studied is expressed by their capacity to inhibit the synthesis of ergosterol compared to an untreated control sample.

[10] = system: clinical strains of Candida; experiment: Antifungal activity in vitro on several clinical strains of Candida (overall statement over all strains); format: cell-based; conditions: summary of Table 41
[11] = system: Candida tropicalis (1 strain); experiment: Antifungal activity in vitro on clinical strains of Candida: tropicalis (1 strain); format: cell-based; conditions: strain CT980002 (Candida tropicalis)
[12] = Leishmania mexicana; promastigotes; 36 h at 26° C., MTT; read-out: CI50 Leishmania mexicana Promastigotes
[13] = Candida albicans, 24 h at 37° C., MTT
[14] = compound 45 intraperitoneally for 10 days, dose not given, three weeks after treatment
[15] = Test N°3, 3 × 20 mg/kg/d for 5 d intraperitoneal
[16] = strain CA980001 (Candida albicans)
[17] = strain CP980002 (Candida parapsilosis)
[18] = strain CK980002 (Candida krusei)
[19] = strain CK980003 (Candida krusei)
[20] = strain CK980004 (Candida krusei)
[21] = Test N°3, ketoconazole 20 mg/kg/d for 5 d

Compound: CCn1cc(C(c2ccc(Cl)cc2Cl)n2cncn2)c2cc(Br)ccc21 (centres unmarked) [Cpsé 47, 5-Bromo-1-ethyl-3-[(2,4-dichlorophenyl)(1H-1,2,4-triazol-1yl)methyl]-1H-indole]
melting point: 124 to 126 °C | IC50 [1, 12]: 25 µM and 8.07 µg/mL | MIC ([2]; Alamar Blue): > 100 µM | MIC [3, 13]: > 100 µM

Compound: CCN1CCc2cc(Br)cc(C(c3ccc(F)cc3)n3ccnc3)c21 (centres unmarked) [Cpsé 51, 5-Bromo-1-ethyl-7-[(4-fluorophenyl)(1H-imidazol-1-yl)methyl]indoline]
melting point: 120 to 123 °C | IC50 [1, 12]: 59.2 µM and 23.8 µg/mL | MIC ([2]; Alamar Blue): > 100 µM | MIC [3, 13]: > 100 µM

Compound: Clc1ccc(Cn2cc(CCn3ccnc3)c3ccccc32)cc1 [Cpsé 59, 1-(4-Chlorobenzyl)-3-(2-1H-imidazol-1-ylethyl)-1H-indole]
melting point: 78 to 80 °C

melting point: 91 to 92 °C
Compound: Clc1ccc(Cn2cc(C3(Cn4ccnc4)CCCC3)c3ccccc32)cc1 [Cpsé 63, 1-[1-(4-Chlorobenzyl)-1H-indol-3yl]-1-(1H-imidazol-1-ylmethyl)cyclopentane]

Compound: OC(Cn1cncn1)(Cn1ccc2ccccc21)c1ccc(Cl)cc1Cl (centres unmarked) [Cpsé 78, 2-(2,4-Dichlorophenyl)-1-(1,2,4-1H-triazol-1-yl)-3-(indol-1-yl)propan-2-ol]
reduction of the hepatic parasite level (Leishmania major; [14]): 79% | reduction of the spleen parasite level (Leishmania major; [14]): 98.9% | activity against the intracellular amastigote form of Leishmania (in words) [4]: very active | IC50 ([4]; intracellular amastigote form): 1.5 ± 0.01 µg/mL (≈ 3.87 µM) | activity against Leishmania mexicana (in words) [1]: most active | IC50 ([1]; Leishmania mexicana; read-out: CI50 Leishmania mexicana Promastigotes): 0.1 µg/mL and 230 nM | MIC [2]: > 100 µM | MIC ([3]; Candida albicans, 24 h): > 100 µM | parasite level in the kidneys compared with the control group (in words) [5, 15]: significant reduction

Compound: CNC[C@H](O)[C@@H](O)[C@H](O)[C@H](O)CO.[O]=[Sb](=[O])[OH] [Glucantime ®, meglumine antimoniate, reference compound]
reduction of the hepatic parasite level (Leishmania major; Glucantime 10 mg/Kg/d, 10 days): 74% | reduction of the spleen parasite level (Leishmania major; Glucantime 10 mg/Kg/d, 10 days): 82% | IC50 on the amastigote stage of Leishmania mexicana [4]: 48.7 µg/mL | CI50 Leishmania mexicana Promastigotes [1]: 15000 ± 260 µg/mL

Compound: CC(=O)N1CCN(c2ccc(OCC3COC(Cn4ccnc4)(c4ccc(Cl)cc4Cl)O3)cc2)CC1 (centres unmarked) [Ketoconazole, ketoconazole, reference compound]
CI80 on clinical strains of Candida [6, 16]: 5 nM | CI80 on clinical strains of Candida [7, 17]: <10 nM | CI80 on clinical strains of Candida [8, 18]: 700 ± 20 nM | CI80 on clinical strains of Candida [8, 19]: 800 ± 20 nM | CI80 on clinical strains of Candida [8, 20]: <10 nM | IC50 [4]: 1.3 ± 0.2 µg/mL (≈ 2.45 µM) | IC50 ([1]; Leishmania mexicana, read-out: CI50 Leishmania mexicana Promastigotes): 3 ± 0.5 µg/mL | CI80 on clinical strains of Candida [9]: <10 nM | MIC ([3]; Candida albicans, 24 h): 0.0094 µM (≈ 0.005 µg/mL) | CMI or CI80 Candida albicans (CA980001) [3]: 0.005 µg/mL | survival at D14 ([5]; Test N°1, ketoconazole 20 mg/kg/d for 5 d): 88% | survival at D14 ([5]; Test N°2, ketoconazole 10 mg/kg/d for 5 d): Ketoconazole: no survival at D14. | survival at D14 [5, 21]: 88% | survival at D18 [5, 21]: 50% | survival at D10 ([5]; ketoconazole 20 mg/kg/d for 5 d): 50%

Compound: OC(Cn1cncn1)(Cn1ccc2ccccc21)c1ccc(Cl)cc1Cl (centres unmarked) [compound 78]
inhibition of the synthesis of ergosterol (in words) (synthesis of ergosterol; preliminary results): strong inhibition | reduction of the presence of ergosterol (HPLC determination) (synthesis of ergosterol; treatment for 24 hours at 10 μg, HPLC): 70% | ergosterol in the treated sample (UV spectrophotometry, in words) (synthesis of ergosterol; treatment for 24 hours at 10 μg, UV spectrophotometry): absence of ergosterol | activity against strains of Candida albicans (in words) ([6]; clinical strains): active; also recorded: very active | CI80 on clinical strains of Candida [6, 16]: <1 nM | CI80 on clinical strains of Candida ([6]; strain CA980002 (Candida albicans)): <10 nM | CI80 on clinical strains of Candida ([6]; strain CA980003 (Candida albicans)): <10 nM | CI80 on clinical strains of Candida ([6]; strain CA980005 (Candida albicans)): <10 nM | activity against Candida parapsilosis (in words) ([7]; clinical strains): very active | CI80 on clinical strains of Candida ([7]; strain CP980001 (Candida parapsilosis)): <10 nM | CI80 on clinical strains of Candida [7, 17]: 530 ± 120 nM | activity against Candida krusei (in words) ([8]; clinical strains, b748: one strain): active; also recorded: very active | CI80 on clinical strains of Candida ([8]; strain CK980001 (Candida krusei)): <10 nM | CI80 on clinical strains of Candida [8, 18]: 7200 ± 100 nM | CI80 on clinical strains of Candida [8, 19]: 9200 ± 40 nM | CI80 on clinical strains of Candida [8, 20]: 300 ± 100 nM | IC50 ([1]; promastigotes; read-out: CI50 Leishmania mexicana Promastigotes): < 1000 nM | activity against different strains of Candida (in words) [10]: most active | CI80 on clinical strains of Candida [11]: <10 nM | activity against Candida lusitaniae (in words) ([9]; clinical strain): very active | CI80 on clinical strains of Candida [9]: <10 nM | MIC [3]: <0.001 µM | effect of treatment on the survival of the animals (in words) ([5]; Test N°2, 2 × 30 mg/kg/d for 5 d intraperitoneally, monitored 14 days (78: from D9 to D14)): significantly prolonged the survival | survival at D14 [5, 15]: 100% | survival at D18 [5, 15]: 75% | survival greater than that of the reference treatment (ketoconazole 20 mg/kg) ([5]; Test N°3, 3 × 20 mg/kg/d, experiment continued for 4 more days (D18)): 25% | survival at D10 ([5]; 3 × 20 mg/kg/d for 5 d, treatment intraperitoneal or per os): 100%
